Experimental data as given in patent US10711004B2 (Genentech, Inc., priority 2018, dated 2020).
Where two headings read alike, the source gives them in different places.

Biological target: human TRPA1 channel (Homo sapiens (Human), UniProt O75762)
Experiment: hTRPA1 CHO Ca2+ FLIPR Tetra assay, block of cinnamaldehyde induced calcium influx
Type: cell-based
Settings: for IC50: CHO cells expressing TRPA1, Hill coefficient fixed to 1.5
Outline: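 IC50 values come from fixed-Hill fits of inhibition of cinnamaldehyde-induced (about EC50 level) calcium influx measured by FLIPR Tetra. Before agonist, TRPA1-expressing CHO cells loaded with calcium indicator were exposed to compound for 10 or 90 min at room temperature in HEPES-buffered HBSS, pH 7.4, with 0.02% BSA.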

[1] = read-out: hTRPA1 IC50 (10 min), compounds incubated 10 minutes at room temperature before cinnamaldehyde agonist
[2] = read-out: hTRPA1 IC50 (90 min), compounds incubated 90 minutes at room temperature before cinnamaldehyde agonist

Sequence of human TRPA1 channel (O75762 whole entry): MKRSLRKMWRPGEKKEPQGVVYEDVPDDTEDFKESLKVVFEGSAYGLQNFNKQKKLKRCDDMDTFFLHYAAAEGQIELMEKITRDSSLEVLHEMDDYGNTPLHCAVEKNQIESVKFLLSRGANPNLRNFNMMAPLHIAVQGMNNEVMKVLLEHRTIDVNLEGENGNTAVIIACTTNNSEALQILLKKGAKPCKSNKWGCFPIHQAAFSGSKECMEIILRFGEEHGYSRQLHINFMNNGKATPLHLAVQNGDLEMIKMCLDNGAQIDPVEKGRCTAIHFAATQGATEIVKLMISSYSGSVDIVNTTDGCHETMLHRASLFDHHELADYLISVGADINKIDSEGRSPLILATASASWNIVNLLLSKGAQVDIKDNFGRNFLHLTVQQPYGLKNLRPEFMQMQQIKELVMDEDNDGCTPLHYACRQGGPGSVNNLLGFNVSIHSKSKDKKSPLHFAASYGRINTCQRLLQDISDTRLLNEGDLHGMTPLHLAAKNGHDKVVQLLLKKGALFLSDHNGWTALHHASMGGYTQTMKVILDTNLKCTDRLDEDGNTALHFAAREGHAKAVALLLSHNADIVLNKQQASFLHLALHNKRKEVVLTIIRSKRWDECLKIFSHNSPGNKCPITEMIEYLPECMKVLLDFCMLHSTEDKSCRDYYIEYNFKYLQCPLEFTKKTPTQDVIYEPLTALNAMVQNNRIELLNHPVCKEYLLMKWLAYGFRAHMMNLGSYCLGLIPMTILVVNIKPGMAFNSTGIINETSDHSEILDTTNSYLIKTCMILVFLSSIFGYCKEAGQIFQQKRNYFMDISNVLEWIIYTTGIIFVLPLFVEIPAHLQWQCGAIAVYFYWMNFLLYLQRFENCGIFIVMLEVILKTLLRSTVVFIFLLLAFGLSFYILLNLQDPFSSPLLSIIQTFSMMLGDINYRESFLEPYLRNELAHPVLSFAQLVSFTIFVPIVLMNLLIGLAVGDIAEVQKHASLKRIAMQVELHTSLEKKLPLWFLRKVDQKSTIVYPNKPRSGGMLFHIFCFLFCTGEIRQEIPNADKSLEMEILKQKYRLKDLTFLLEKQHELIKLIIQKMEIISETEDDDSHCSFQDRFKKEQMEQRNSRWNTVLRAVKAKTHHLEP

Row | Molecule | IC50 [1] [nM] | IC50 [2] [nM] | IC50 (compounds incubated 10 minutes at room temperature before cinnamaldehyde agonist) [nM] | TRPA1 IC50 compared with 3-azabicyclo[3.1.0]hexene linker and cyclobutylene linker analogues (bicyclo[3.1.0]hexene linker compounds versus same-substituent analogues (compounds 16, 191; 26, 1))
1 | Cn1cnc2ncn(Cc3nc([C@@H]4CC[C@@H](c5ccccc5)C4)no3)c(=O)c21 | 149 |  |  | 
2 | Cn1cnc2ncn(Cc3nc([C@H]4[C@@H]5C=C(c6cccnc6)C[C@@H]54)no3)c(=O)c21 [Example Compound 133, 7-methyl-1-((3-((1S,5S,6R)-3-(pyridin-3-yl)bicyclo[3.1.0]hex-2-en-6-yl)-1,2,4-oxadiazol-5-yl)methyl)-1,7-dihydro-6H-purin-6-one] | 179 | 160 |  | 
3 | Cn1cnc2ncn(Cc3nc([C@H]4[C@@H]5C=C(c6ccc7ccncc7c6)C[C@@H]54)no3)c(=O)c21 [Example Compound 135, 1-((3-((1S,5S,6R)-3-(isoquinolin-7-yl)bicyclo[3.1.0]hex-2-en-6-yl)-1,2,4-oxadiazol-5-yl)methyl)-7-methyl-1,7-dihydro-6H-purin-6-one] | 58.7 | 48 |  | 
4 | O=c1c2cccnc2cnn1Cc1nc([C@H]2[C@@H]3CN(c4cc(F)ccn4)C[C@@H]32)no1 [Example Compound 153, 6-((3-((1R,5S,6r)-3-(4-fluoropyridin-2-yl)-3-azabicyclo[3.1.0]hexan-6-yl)-1,2,4-oxadiazol-5-yl)methyl)pyrido[2,3-d]pyridazin-5(6H)-one] | 95.7 | 60 |  | 
5 | Cn1c(=O)ccc2ncn(Cc3nc([C@H]4[C@@H]5CN(c6cccc(Cl)c6)C[C@@H]54)no3)c(=O)c21 [Example Compound 173, 3-((3-((1R,5S,6r)-3-(3-chlorophenyl)-3-azabicyclo[3.1.0]hexan-6-yl)-1,2,4-oxadiazol-5-yl)methyl)-5-methyl-3,5-dihydropyrido[3,2-d]pyrimidine-4,6-dione] | 3.97 |  |  | 
6 | Cn1cnc2ncn(Cc3nc([C@H]4[C@@H]5CN(c6cccc(C#N)n6)C[C@@H]54)no3)c(=O)c21 [Example Compound 171, 6-((1R,5S,6r)-6-(5-((7-methyl-6-oxo-6,7-dihydro-1H-purin-1-yl)methyl)-1,2,4-oxadiazol-3-yl)-3-azabicyclo[3.1.0]hexan-3-yl)picolinonitrile] | 271 | 89 |  | 
7 | Cn1cnc2ncn(Cc3nc([C@H]4[C@@H]5CN(c6ccc(-c7cnco7)cc6)C[C@@H]54)no3)c(=O)c21 [Example Compound 150, 7-methyl-1-((3-((1R,5S,6r)-3-(4-(oxazol-5-yl)phenyl)-3-azabicyclo[3.1.0]hexan-6-yl)-1,2,4-oxadiazol-5-yl)methyl)-1,7-dihydro-6H-purin-6-one] | 162 | 38 |  | 
8 | Cn1cnc2ncn(Cc3nc([C@H]4[C@@H]5CN(c6ccc(F)c(Cl)c6)C[C@@H]54)no3)c(=O)c21 | 9.78 |  |  | 
9 | Cc1ccnc2ncn(Cc3nc([C@H]4C[C@](O)(c5cccc(Cl)c5)C4)no3)c(=O)c12 | 57.8 |  |  | 
10 | Cc1ccnc2ncn(Cc3nc([C@H]4[C@@H]5Cc6ccccc6[C@@H]54)no3)c(=O)c12 (stereo in doubt) [Example Compound 15, 5-methyl-3-[[3-[rac-(1R,1 aR,6aS)-1,1a,6,6a-tetrahydrocyclopropa[a]inden-1-yl]-1,2,4-oxadiazol-5-yl]methyl]pyrido[2,3-d]pyrimidin-4-one] |  |  | 305 | 
11 | Cc1cnn2ncn(Cc3nc([C@H]4[C@@H]5CN(c6ccccc6)C[C@@H]54)no3)c(=O)c12 [Example Compound 95, 5-methyl-3-((3-((1R,5S,6r)-3-phenyl-3-azabicyclo[3.1.0]hexan-6-yl)-1,2,4-oxadiazol-5-yl)methyl)pyrazolo[5,1f][1,2,4]triazin-4(3H)-one] | 8.11 | 3.5 |  | 
12 | O=c1c2c(Cl)ccnc2ncn1Cc1nc([C@H]2C[C@](F)(c3ccc(Cl)cc3)C2)no1 [Example Compound 121, 5-chloro-3-((3-((1s,3s)-3-(4-chlorophenyl)-3-fluorocyclobutyl)-1,2,4-oxadiazol-5-yl)methyl)pyrido[2,3-d]pyrimidin-4(3H)-one] | 13.1 | 22 |  | 
13 | Cn1cnc2ncn(Cc3nc([C@H]4[C@@H]5CN(c6ccc(F)cc6)C[C@@H]54)no3)c(=O)c21 [Example Compound 7, 7-methyl-1-[[3-[(1R,5S,6 r)-3-(4-fluorophenyl)-3-azabicyclo[3.1.0]hexan-6-yl]-1,2,4-oxadiazol-5-yl]methyl]purin-6-one] | 31 |  |  | 
14 | 1-((3-((1R,5S,6r)-3-(3-fluorophenyl)-3-azabicyclo[3.1.0]hexan-6-yl)-1,2,4-oxadiazol-5-yl)methyl)-7-methyl-1,7-dihydro-6H-purin-6-one-2-d [Example Compound 89] | 31.1 |  |  | 
15 | Cc1ccnc2ncn(Cc3nc([C@H]4C[C@H](c5ccc(OC(F)(F)F)cc5)C4)no3)c(=O)c12 | 63.8 |  |  | 
16 | Cc1nn(C)c2ncn(Cc3nc([C@H]4[C@@H]5CN(c6cc(Cl)ccn6)C[C@@H]54)no3)c(=O)c12 [Example Compound 137, 5-((3-((1R,5S,6r)-3-(4-chloropyridin-2-yl)-3-azabicyclo[3.1.0]hexan-6-yl)-1,2,4-oxadiazol-5-yl)methyl)-1,3-dimethyl-1,5-dihydro-4H-pyrazolo[3,4-d]pyrimidin-4-one] | 58.5 | 43 |  | 
17 | COc1ccc([C@H]2C[C@H](c3noc(Cn4cnc5nccc(C)c5c4=O)n3)C2)cc1 | 38.7 |  |  | 
18 | Cn1cnc2ncn(Cc3nc([C@@H]4[C@H]5C=C(c6cccc(Cl)c6)C[C@H]54)no3)c(=O)c21 [Example Compound 185, 1-((3-((1R,5R,6S)-3-(3-chlorophenyl)bicyclo[3.1.0]hex-2-en-6-yl)-1,2,4-oxadiazol-5-yl)methyl)-7-methyl-1,7-dihydro-6H-purin-6-one] | 18.5 | 7.8 |  | improved TRPA1 IC50 values
19 | O=c1c2cccnc2ncn1Cc1nc([C@H]2C[C@](F)(c3ccc(Cl)cc3)C2)no1 | 20.2 |  |  | 
20 | Cn1cnc2ncn(Cc3nc([C@H]4[C@@H]5C=C(c6ccc(F)c(F)c6)C[C@@H]54)no3)c(=O)c21 [Example Compound 93, 1-((3-((1S,5S,6R)-3-(3,4-difluorophenyl)bicyclo[3.1.0]hex-2-en-6-yl)-1,2,4-oxadiazol-5-yl)methyl)-7-methyl-1,7-dihydro-6H-purin-6-one] | 12.7 | 3.9 |  | 

The next lines start with the values.

Row | IC50 [1] [nM] | IC50 [2] [nM] | IC50 (compounds incubated 10 minutes at room temperature before cinnamaldehyde agonist) [nM] | TRPA1 IC50 compared with 3-azabicyclo[3.1.0]hexene linker and cyclobutylene linker analogues (bicyclo[3.1.0]hexene linker compounds versus same-substituent analogues (compounds 16, 191; 26, 1)) | Molecule
21 | 10.5 | 5.3 |  |  | Nc1ccc2c(=O)n(Cc3nc([C@H]4[C@@H]5C=C(c6ccccc6)C[C@@H]54)no3)cnc2n1 [Example Compound 239, 7-amino-3-[[3-[(1S,5S,6R)-3-phenyl-6-bicyclo[3.1.0]hex-2-enyl]-1,2,4-oxadiazol-5-yl]methyl]pyrido[2,3-d]pyrimidin-4-one]
22 | 78.3 | 72 |  |  | Cn1cnc2ncn(Cc3nc([C@H]4[C@@H]5CN(c6cccc(-c7ncco7)c6)C[C@@H]54)no3)c(=O)c21 [Example Compound 190, 7-methyl-1-((3-((1R,5S,6r)-3-(3-(oxazol-2-yl)phenyl)-3-azabicyclo[3.1.0]hexan-6-yl)-1,2,4-oxadiazol-5-yl)methyl)-1,7-dihydro-6H-purin-6-one]
23 | 95 |  |  |  | O=c1c2cccnc2ncn1Cc1nc([C@H]2C[C@](F)(c3ccc(F)cc3)C2)no1 [Example Compound 207, 3-((3-((1s,3s)-3-fluoro-3-(4-fluorophenyl)cyclobutyl)-1,2,4-oxadiazol-5-yl)methyl)pyrido[2,3-d]pyrimidin-4(3H)-one]
24 | 78.5 |  |  |  | O=c1c2cccnc2ncn1Cc1nc([C@H]2C[C@H](c3ccc(Cl)cc3)C2)no1 [Example Compound 208, 3-((3-((1r,3r)-3-(4-chlorophenyl)cyclobutyl)-1,2,4-oxadiazol-5-yl)methyl)pyrido[2,3-d]pyrimidin-4(3H)-one]
25 | 63.8 | 10 |  |  | Cn1cnc2ncn(Cc3nc([C@H]4[C@@H]5CN(c6ccc7ncsc7c6)C[C@@H]54)no3)c(=O)c21 [Example Compound 211, 1-((3-((1R,5S,6r)-3-(benzo[d]thiazol-6-yl)-3-azabicyclo[3.1.0]hexan-6-yl)-1,2,4-oxadiazol-5-yl)methyl)-7-methyl-1,7-dihydro-6H-purin-6-one]
26 | 73.5 | 17 |  |  | Cn1cnc2ncn(Cc3nc([C@H]4[C@@H]5CN(c6cccc(C#N)c6)C[C@@H]54)no3)c(=O)c21 [Example Compound 235, 3-((1R,5S,6r)-6-(5-((7-methyl-6-oxo-6,7-dihydro-1H-purin-1-yl)methyl)-1,2,4-oxadiazol-3-yl)-3-azabicyclo[3.1.0]hexan-3-yl)benzonitrile]
27 | 11.3 | 1.5 |  |  | Cc1cc(N)nc2ncn(Cc3nc([C@H]4[C@@H]5C=C(c6ccccc6)C[C@@H]54)no3)c(=O)c12 [Example Compound 238, 7-amino-5-methyl-3-[[3-[(1S,5S,6R)-3-phenyl-6-bicyclo[3.1.0]hex-2-enyl]-1,2,4-oxadiazol-5-yl]methyl]pyrido[2,3-d]pyrimidin-4-one]
28 | 13 | 30 |  |  | Cc1ccnc2ncn(Cc3nc([C@H]4C[C@](F)(c5ccc(F)cc5)C4)no3)c(=O)c12 [Example Compound 196, 3-((3-((1s,3s)-3-fluoro-3-(4-fluorophenyl)cyclobutyl)-1,2,4-oxadiazol-5-yl)methyl)-5-methylpyrido[2,3-d]pyrimidin-4(3H)-one]
29 | 58.7 |  |  |  | O=c1c2cccnc2ncn1Cc1nc([C@H]2C[C@](F)(c3cccc(Cl)c3)C2)no1 [Example Compound 198, 3-((3-((1s,3s)-3-(3-chlorophenyl)-3-fluorocyclobutyl)-1,2,4-oxadiazol-5-yl)methyl)pyrido[2,3-d]pyrimidin-4(3H)-one]
